Test results reported in ChEMBL document CHEMBL4507300 (2021).

Experiments:
[1] = target: Dual specificity protein kinase CLK1 (Homo sapiens) (UniProt P49759); settings: Compound concentration 1000.0 nM
[2] = target: Mitogen-activated protein kinase kinase kinase 13 (Homo sapiens) (UniProt O43283); settings: Compound concentration 1000.0 nM
[3] = target: Atypical kinase COQ8A, mitochondrial (Homo sapiens) (UniProt Q8NI60); settings: Compound concentration 1000.0 nM
[4] = target: Mitogen-activated protein kinase 10 (Homo sapiens) (UniProt P53779); settings: Compound concentration 1000.0 nM
[5] = target: Serine/threonine-protein kinase 38-like (Homo sapiens) (UniProt Q9Y2H1); settings: Compound concentration 1000.0 nM
[6] = target: Phosphatidylinositol 3-kinase C2 domain-containing subunit gamma (Homo sapiens) (UniProt O75747); settings: Compound concentration 1000.0 nM
[7] = target: Serine/threonine-protein kinase Nek7 (Homo sapiens) (UniProt Q8TDX7); settings: Compound concentration 1000.0 nM
[8] = target: G protein-coupled receptor kinase 3 (Homo sapiens) (UniProt P35626); settings: Compound concentration 1000.0 nM
[9] = system: Hepatocyte growth factor receptor (Homo sapiens), P08581 [Y1235D]; settings: Compound concentration 1000.0 nM
[10] = target: Casein kinase I isoform gamma-1 (Homo sapiens) (UniProt Q9HCP0); settings: Compound concentration 1000.0 nM
[11] = target: Mitogen-activated protein kinase 15 (Homo sapiens) (UniProt Q8TD08); settings: Compound concentration 1000.0 nM
[12] = target: Inhibitor of nuclear factor kappa-B kinase subunit alpha (Homo sapiens) (UniProt O15111); settings: Compound concentration 1000.0 nM
[13] = target: Calcium/calmodulin-dependent protein kinase kinase 2 (Homo sapiens) (UniProt Q96RR4); settings: Compound concentration 1000.0 nM
[14] = target: Tyrosine-protein kinase CSK (Homo sapiens) (UniProt P41240); settings: Compound concentration 1000.0 nM
[15] = system: Epidermal growth factor receptor (Homo sapiens), P00533 [UNDEFINED MUTATION]; settings: Compound concentration 1000.0 nM
[16] = system: Phosphatidylinositol 4,5-bisphosphate 3-kinase catalytic subunit alpha isoform (Homo sapiens), P42336 [E542K]; settings: Compound concentration 1000.0 nM
[17] = target: Vascular endothelial growth factor receptor 1 (Homo sapiens) (UniProt P17948); settings: Compound concentration 1000.0 nM
[18] = target: Hormonally up-regulated neu tumor-associated kinase (Homo sapiens) (UniProt P57058); settings: Compound concentration 1000.0 nM
[19] = target: Dual serine/threonine and tyrosine protein kinase (Homo sapiens) (UniProt Q6XUX3); settings: Compound concentration 1000.0 nM
[20] = target: Cyclin-dependent kinase 19 (Homo sapiens) (UniProt Q9BWU1); settings: Compound concentration 1000.0 nM
[21] = target: Serine/threonine-protein kinase 38 (Homo sapiens) (UniProt Q15208); settings: Compound concentration 1000.0 nM
[22] = target: GABA-A receptor; anion channel (Rattus norvegicus) (UniProt O09028+P15431+P18506+P18508+P19969+P20236+P23574+P23576+P28471+P28473+P30191+P62813+P63079+P63138+Q91ZM7+Q9ES14); settings: Compound concentration 10.0 uM
[23] = target: Sodium-dependent serotonin transporter (Homo sapiens, UniProt P31645); settings: Compound concentration 10.0 uM
[24] = target: Bone morphogenetic protein receptor type-1A (Homo sapiens) (UniProt P36894); settings: Compound concentration 1000.0 nM
[25] = target: Serine/threonine-protein kinase 16 (Homo sapiens) (UniProt O75716); settings: Compound concentration 1000.0 nM
[26] = target: Cyclin-dependent kinase 8 (Homo sapiens) (UniProt P49336); settings: Compound concentration 1000.0 nM
[27] = target: Serine/threonine-protein kinase Nek11 (Homo sapiens) (UniProt Q8NG66); settings: Compound concentration 1000.0 nM
[28] = system: Receptor-type tyrosine-protein kinase FLT3 (Homo sapiens), P36888 [N841I]; settings: Compound concentration 1000.0 nM
[29] = target: STE20-like serine/threonine-protein kinase (Homo sapiens) (UniProt Q9H2G2); settings: Compound concentration 1000.0 nM
[30] = target: Fibroblast growth factor receptor 3 (Homo sapiens) (UniProt P22607); settings: Compound concentration 1000.0 nM
[31] = target: Alpha-1D adrenergic receptor (Homo sapiens) (UniProt P25100); settings: Compound concentration 10.0 uM
[32] = target: Serine/threonine-protein kinase TAO1 (Homo sapiens) (UniProt Q7L7X3); settings: Compound concentration 1000.0 nM
[33] = target: Hepatocyte growth factor receptor (Homo sapiens) (UniProt P08581); settings: Compound concentration 1000.0 nM
[34] = system: Tyrosine-protein kinase ABL1 (Homo sapiens), P00519 [T315I]; settings: Compound concentration 1000.0 nM
[35] = target: Transient receptor potential cation channel subfamily M member 6 (Homo sapiens) (UniProt Q9BX84); settings: Compound concentration 1000.0 nM
[36] = target: Serine/threonine-protein kinase WNK1 (Homo sapiens) (UniProt Q9H4A3); settings: Compound concentration 1000.0 nM
[37] = system: Mast/stem cell growth factor receptor Kit (Homo sapiens), P10721 [V559D]; settings: Compound concentration 1000.0 nM
[38] = target: Tyrosine-protein kinase Lyn (Homo sapiens) (UniProt P07948); settings: Compound concentration 1000.0 nM
[39] = system: Epidermal growth factor receptor (Homo sapiens), P00533 [L858R]; settings: Compound concentration 1000.0 nM
[40] = target: Serine/threonine-protein kinase Nek2 (Homo sapiens) (UniProt P51955); settings: Compound concentration 1000.0 nM
[41] = target: Tyrosine-protein kinase JAK3 (Homo sapiens) (UniProt P52333); settings: Compound concentration 1000.0 nM
[42] = target: Aurora kinase C (Homo sapiens) (UniProt Q9UQB9); settings: Compound concentration 1000.0 nM
[43] = target: Leukocyte tyrosine kinase receptor (Homo sapiens) (UniProt P29376); settings: Compound concentration 1000.0 nM
[44] = target: Interleukin-1 receptor-associated kinase 1 (Homo sapiens) (UniProt P51617); settings: Compound concentration 1000.0 nM

Vascular endothelial growth factor receptor 1 (Homo sapiens), sequence (P17948 whole entry): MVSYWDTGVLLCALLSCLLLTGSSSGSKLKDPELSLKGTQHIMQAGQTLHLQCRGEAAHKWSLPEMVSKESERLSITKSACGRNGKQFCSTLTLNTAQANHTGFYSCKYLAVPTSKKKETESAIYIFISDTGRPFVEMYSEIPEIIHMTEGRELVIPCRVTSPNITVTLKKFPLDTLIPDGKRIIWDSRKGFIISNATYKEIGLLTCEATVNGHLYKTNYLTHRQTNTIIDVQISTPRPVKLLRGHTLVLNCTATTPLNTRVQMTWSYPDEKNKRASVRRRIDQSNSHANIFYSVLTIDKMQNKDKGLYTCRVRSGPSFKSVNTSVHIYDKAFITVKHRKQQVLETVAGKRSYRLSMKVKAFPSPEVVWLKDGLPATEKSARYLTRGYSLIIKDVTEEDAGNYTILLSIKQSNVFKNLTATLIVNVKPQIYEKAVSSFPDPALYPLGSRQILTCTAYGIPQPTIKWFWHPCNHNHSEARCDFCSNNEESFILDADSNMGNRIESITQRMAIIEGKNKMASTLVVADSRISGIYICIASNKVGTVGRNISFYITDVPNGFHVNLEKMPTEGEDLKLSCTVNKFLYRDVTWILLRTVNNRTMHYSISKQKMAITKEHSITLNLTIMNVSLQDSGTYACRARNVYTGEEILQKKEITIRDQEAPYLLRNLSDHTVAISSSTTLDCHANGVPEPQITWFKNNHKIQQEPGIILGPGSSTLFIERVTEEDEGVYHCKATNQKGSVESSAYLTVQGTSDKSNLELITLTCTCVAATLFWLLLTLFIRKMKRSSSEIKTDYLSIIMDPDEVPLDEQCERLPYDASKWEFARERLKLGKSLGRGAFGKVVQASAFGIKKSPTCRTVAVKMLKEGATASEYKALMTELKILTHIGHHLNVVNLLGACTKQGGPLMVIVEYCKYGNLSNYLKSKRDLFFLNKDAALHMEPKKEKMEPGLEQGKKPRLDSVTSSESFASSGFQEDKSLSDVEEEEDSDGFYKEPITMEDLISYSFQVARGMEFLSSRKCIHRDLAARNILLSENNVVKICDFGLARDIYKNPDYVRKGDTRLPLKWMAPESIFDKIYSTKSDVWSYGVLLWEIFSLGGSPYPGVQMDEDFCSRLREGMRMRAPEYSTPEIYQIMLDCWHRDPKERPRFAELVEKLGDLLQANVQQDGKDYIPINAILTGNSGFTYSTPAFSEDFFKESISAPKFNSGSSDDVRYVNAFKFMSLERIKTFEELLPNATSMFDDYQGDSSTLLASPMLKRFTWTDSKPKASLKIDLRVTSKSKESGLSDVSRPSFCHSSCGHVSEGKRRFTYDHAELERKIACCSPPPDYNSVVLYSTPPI
Dual specificity protein kinase CLK1 (Homo sapiens), sequence (P49759 whole entry, looked up): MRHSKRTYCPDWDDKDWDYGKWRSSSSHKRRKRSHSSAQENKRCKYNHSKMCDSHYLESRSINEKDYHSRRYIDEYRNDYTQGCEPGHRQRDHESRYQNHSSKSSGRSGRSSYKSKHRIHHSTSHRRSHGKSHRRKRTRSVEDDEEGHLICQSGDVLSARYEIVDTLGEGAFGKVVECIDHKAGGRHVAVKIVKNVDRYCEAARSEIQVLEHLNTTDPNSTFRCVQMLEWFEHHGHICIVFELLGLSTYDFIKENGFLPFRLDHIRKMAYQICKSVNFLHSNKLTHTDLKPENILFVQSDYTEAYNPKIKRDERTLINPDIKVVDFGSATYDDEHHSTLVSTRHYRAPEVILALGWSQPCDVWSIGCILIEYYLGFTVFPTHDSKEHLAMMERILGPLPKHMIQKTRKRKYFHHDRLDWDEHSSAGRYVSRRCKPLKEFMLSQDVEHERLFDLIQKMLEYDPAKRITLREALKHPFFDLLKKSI
Phosphatidylinositol 3-kinase C2 domain-containing subunit gamma (Homo sapiens), sequence (O75747 whole entry, the tested form may be a part): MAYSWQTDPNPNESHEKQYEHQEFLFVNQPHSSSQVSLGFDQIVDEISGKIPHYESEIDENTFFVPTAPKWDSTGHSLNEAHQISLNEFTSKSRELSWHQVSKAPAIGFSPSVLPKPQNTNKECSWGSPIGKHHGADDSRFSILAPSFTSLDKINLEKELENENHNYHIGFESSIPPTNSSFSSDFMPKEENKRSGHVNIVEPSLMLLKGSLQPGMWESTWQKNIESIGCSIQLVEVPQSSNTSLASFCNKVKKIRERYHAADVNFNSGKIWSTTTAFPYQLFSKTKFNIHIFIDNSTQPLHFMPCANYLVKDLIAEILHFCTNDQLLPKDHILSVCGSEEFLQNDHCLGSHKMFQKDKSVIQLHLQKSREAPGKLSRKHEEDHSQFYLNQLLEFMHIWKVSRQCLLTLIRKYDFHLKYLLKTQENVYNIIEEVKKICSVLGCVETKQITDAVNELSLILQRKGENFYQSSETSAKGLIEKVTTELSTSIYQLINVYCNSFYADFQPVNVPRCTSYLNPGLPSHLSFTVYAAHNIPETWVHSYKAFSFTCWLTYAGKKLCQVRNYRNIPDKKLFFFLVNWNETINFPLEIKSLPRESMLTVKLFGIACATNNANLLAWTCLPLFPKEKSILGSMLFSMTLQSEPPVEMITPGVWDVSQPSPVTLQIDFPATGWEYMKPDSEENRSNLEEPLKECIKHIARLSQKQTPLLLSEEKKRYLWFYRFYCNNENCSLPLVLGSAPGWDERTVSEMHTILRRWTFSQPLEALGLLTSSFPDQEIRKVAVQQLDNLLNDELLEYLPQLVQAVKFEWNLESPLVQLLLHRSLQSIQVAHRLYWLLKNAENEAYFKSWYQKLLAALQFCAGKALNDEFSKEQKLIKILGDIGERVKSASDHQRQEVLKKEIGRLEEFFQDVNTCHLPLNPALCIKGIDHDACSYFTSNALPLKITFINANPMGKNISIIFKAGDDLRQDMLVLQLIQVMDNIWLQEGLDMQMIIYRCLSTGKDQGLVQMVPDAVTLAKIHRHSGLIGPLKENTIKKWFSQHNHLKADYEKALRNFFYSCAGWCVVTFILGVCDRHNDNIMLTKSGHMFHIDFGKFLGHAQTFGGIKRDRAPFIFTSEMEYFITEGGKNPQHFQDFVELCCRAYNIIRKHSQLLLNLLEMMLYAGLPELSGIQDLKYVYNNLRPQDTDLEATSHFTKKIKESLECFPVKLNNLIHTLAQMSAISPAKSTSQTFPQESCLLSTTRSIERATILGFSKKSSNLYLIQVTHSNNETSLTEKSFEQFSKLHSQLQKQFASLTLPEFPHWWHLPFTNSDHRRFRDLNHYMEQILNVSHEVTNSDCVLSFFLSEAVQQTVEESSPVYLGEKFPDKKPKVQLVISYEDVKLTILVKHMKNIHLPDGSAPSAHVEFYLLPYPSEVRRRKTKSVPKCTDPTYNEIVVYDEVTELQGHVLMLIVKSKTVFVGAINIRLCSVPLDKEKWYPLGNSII
Mast/stem cell growth factor receptor Kit (Homo sapiens), P10721 [V559D], sequence (P10721 whole entry V559D): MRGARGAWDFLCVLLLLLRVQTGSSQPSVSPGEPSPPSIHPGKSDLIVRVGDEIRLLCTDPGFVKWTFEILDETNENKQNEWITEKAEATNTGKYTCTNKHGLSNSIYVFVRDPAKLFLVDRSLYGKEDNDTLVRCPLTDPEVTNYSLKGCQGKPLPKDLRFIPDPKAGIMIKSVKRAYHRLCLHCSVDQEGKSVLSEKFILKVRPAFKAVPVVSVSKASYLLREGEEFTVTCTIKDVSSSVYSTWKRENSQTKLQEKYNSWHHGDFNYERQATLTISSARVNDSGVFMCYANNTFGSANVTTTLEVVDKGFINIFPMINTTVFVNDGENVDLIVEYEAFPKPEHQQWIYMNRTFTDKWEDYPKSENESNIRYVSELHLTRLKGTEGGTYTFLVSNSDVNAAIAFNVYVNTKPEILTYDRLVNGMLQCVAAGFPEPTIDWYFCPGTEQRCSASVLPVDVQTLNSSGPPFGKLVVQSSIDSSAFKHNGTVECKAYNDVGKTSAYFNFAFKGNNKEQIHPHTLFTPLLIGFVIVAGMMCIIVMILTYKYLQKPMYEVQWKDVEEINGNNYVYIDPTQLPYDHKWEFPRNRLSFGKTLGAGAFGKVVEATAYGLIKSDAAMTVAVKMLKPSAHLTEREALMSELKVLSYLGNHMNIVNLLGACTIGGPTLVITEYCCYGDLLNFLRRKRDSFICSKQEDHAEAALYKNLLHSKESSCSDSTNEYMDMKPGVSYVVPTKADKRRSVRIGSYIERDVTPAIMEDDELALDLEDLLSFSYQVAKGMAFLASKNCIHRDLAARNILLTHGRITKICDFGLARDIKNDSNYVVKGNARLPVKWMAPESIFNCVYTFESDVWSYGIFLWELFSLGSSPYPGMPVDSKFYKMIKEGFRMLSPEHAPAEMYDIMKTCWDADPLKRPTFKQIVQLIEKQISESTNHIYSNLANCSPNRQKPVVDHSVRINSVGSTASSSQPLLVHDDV
Mitogen-activated protein kinase 15 (Homo sapiens), sequence (Q8TD08 whole entry): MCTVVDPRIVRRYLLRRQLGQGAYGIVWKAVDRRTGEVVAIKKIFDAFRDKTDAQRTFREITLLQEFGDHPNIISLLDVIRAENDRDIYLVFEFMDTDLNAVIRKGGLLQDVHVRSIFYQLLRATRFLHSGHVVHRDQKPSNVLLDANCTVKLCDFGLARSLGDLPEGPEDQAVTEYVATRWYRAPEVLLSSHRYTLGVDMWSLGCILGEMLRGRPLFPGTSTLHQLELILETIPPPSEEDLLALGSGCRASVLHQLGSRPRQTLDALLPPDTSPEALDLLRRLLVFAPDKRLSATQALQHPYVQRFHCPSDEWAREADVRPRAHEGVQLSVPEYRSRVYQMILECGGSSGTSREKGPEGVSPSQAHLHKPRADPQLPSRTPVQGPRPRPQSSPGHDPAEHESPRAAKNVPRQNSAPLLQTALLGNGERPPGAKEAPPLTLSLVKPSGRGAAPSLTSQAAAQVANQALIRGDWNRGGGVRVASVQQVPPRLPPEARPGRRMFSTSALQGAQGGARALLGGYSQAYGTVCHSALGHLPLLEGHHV

COc1cccc(CNC(=O)c2nc3scc(COCc4ccc(C(=O)O)cc4)c3c(=O)[nH]2)c1 [T-26c]
inactive: residual activity [1] 95.6% | residual activity [2] 61.5% | residual activity [3] 100% | residual activity [4] 76.6% | residual activity [5] 87.7% | residual activity [6] 100% | residual activity [7] 100% | residual activity [8] 72.5% | residual activity [9] 100% | residual activity [10] 100% | residual activity [11] 82.4% | residual activity [12] 64.8% | residual activity [13] 100% | residual activity [14] 100% | residual activity [15] 80.4% | residual activity [16] 76.1% | residual activity [17] 93.9% | residual activity [18] 100% | residual activity [19] 54.5% | residual activity [20] 100% | residual activity [21] 72% | inhibition [22] 19% | inhibition [23] -3.64% | residual activity [24] 100% | residual activity [25] 87.2% | residual activity [26] 73.4% | residual activity [27] 65.6% | residual activity [28] 100% | residual activity [29] 100% | residual activity [30] 100% | inhibition [31] -5.4% | residual activity [32] 69.5% | residual activity [33] 100% | residual activity [34] 92% | residual activity [35] 81.8% | residual activity [36] 76.7% | residual activity [37] 99.1% | residual activity [38] 93.7% | residual activity [39] 88.3% | residual activity [40] 100% | residual activity [41] 78.4% | residual activity [42] 67.3% | residual activity [43] 70.6% | residual activity [44] 75.6%
